Data reported in US9220680B2, “Compositions and methods for localized drug delivery through mammary papillae” (South Dakota State University, priority 2012, dated 2015).

How the values were obtained:
MCF-7 cells [1] = assay: MTT assay (cell viability); assay type: cell-based, human; conditions: different concentrations and time points
Procedure: (§1) MTT Assay: After treatment with different concentrations of α-santalol for different time points, cells were incubated with MTT and subsequently solubilized in DMSO. Absorbance was measured at 570 nm.

MDA-MB-231 cells [2] = assay: MTT assay (cell viability); assay type: cell-based, human; conditions: different concentrations and time points
Procedure: as §1

MCF-7 cells [3] = assay: BrdU cell proliferation ELISA; assay type: cell-based, human; conditions: 24 and 48 hours
Procedure: (§2) BrdU Cell Proliferation ELISA: Used to quantitate cell proliferation based on the measurement of Brdu incorporation during DNA synthesis in proliferating cells. At the end of 24 and 48 hours of treatment, cells were labeled with BrdU, fixed, denatured, and then incubated with Anti-BrdU POD. Absorbance was measured at 405 nm.

MDA-MB-231 cells [4] = assay: BrdU cell proliferation ELISA; assay type: cell-based, human; conditions: 24 and 48 hours
Procedure: as §2

MCF-7 cells [5] = assay: TUNEL assay and flow cytometry (apoptosis); assay type: cell-based, human
Procedure: (§3) TUNEL Assay and Flow Cytometry: After incubation with alpha-santalol, cells were fixed with paraformaldehyde and ethanol. DNA strand breaks were labeled with BrdUTP. Brdu incorporation at DNA strand breaks was detected by Alexa Fluor 488 dye-labeled anti-BrdU antibodies. Samples were analyzed by Flow Cytometry.

MDA-MB-231 cells [6] = assay: TUNEL assay and flow cytometry (apoptosis); assay type: cell-based, human
Procedure: as §3

MCF-7 cells [7] = assay: Cell cycle analysis, propidium iodide flow cytometry; assay type: cell-based, human; conditions: 25 μM-75 μM, 12 hours
Procedure: (§4) Cell Cycle Analysis: After 12 hours of treatment with alpha-santalol, cells were fixed with 70% ethanol in PBS, treated with RNaseA, followed by staining with propidium iodide. Cells were analyzed by flow cytometry to determine cell-cycle distribution.

MDA-MB-231 cells [8] = assay: as above; assay type: cell-based, human; conditions: 25 μM-75 μM, 12 hours
Procedure: as §4

MCF-7 cells [9] = assay: Western blotting of apoptotic proteins; assay type: cell-based, human; conditions: 12, 24 or 48 hours
Procedure: (§5) Western Blotting: Cells were treated with various concentrations of α-santalol and incubated for 12, 24 or 48 hours. Cell lysates were made and subjected to western blot analysis to determine the expression of different proteins.

MDA-MB-231 cells [10] = assay: Western blotting of apoptotic proteins; assay type: cell-based, human; conditions: 12, 24 or 48 hours
Procedure: as §5

[11] = Penetration of α-santalol into porcine mammary papilla without keratin plug removal (Experiment 25); assay type: in vitro ADME; conditions: value (SEM), n=3
Procedure: Experiment procedure—Mammary papillae were setup in FSD and kept for saturation for 12 hours. Then 500 μl of drug formulation was added in the donor. Three 200 μl samples of donor were taken to determine GCMS area of donors. Now 200 μl samples were collected from the receptor on each time point. […] Results may be seen in FIG. 51 and Table 33.

[12] = Topical transmammary delivery of tamoxifen with and without α-santalol via porcine mammary papilla (Experiment 27); assay type: in vitro ADME; conditions: given in combination with α-santalol
Procedure: From the receptor, 200 μl samples were taken at every time point. After 48 hours, tissues were taken, washed, cut in four sections, weighed and solubilized using the tissue solubilizer. After 24 hours, DPM counts were measured from each section of the tissue using scintillation cocktail.

[13] = 6 hours treatment 48 h disposition study

Row | Compound | Cell viability (MTT) (MCF-7 cells [1]) | Cell viability (MTT) (MDA-MB-231 cells [2]) | Cell proliferation (BrdU ELISA) (MCF-7 cells [3]) | Cell proliferation (BrdU ELISA) (MDA-MB-231 cells [4]) | Apoptosis (TUNEL, flow cytometry) (MCF-7 cells [5]) | Apoptosis (TUNEL, flow cytometry) (MDA-MB-231 cells [6]) | Cell cycle distribution (MCF-7 cells [7]) | Cell cycle distribution (MDA-MB-231 cells [8]) | Cleavage of apoptotic proteins (western blot) (MCF-7 cells [9]) | Cleavage of apoptotic proteins (western blot) (MDA-MB-231 cells [10]) | Tissue retention ([11]; 5% v/v in 2:1 ethanol:PBS, 6 h treatment) | Tissue retention [11, 13] | Tissue retention (% of applied dose) [11, 13] | Tissue retention (% of applied dose) ([11]; 6 h treatment) | Tissue retention ([11]; 48 h treatment) | Tissue retention (% of applied dose) ([11]; 48 h treatment) | Applied dose retained by the tissue [12]
1 | C/C(=C/CCC1(C)C2CC3C(C2)C31C)CO (stereo not drawn) [alpha-santalol] | inhibition of cell viability and proliferation in a time and dose-dependent manner | inhibition of cell viability and proliferation in a time and dose-dependent manner | inhibition of cell viability and proliferation in a time and dose-dependent manner | inhibition of cell viability and proliferation in a time and dose-dependent manner | significantly induced apoptosis | significantly induced apoptosis | arrested cell cycles at the G2/M phase | arrested cell cycles at the G2/M phase | PARP cleavage | caspase-3 and PARP cleavage | 5.21 (0.41) μmole/g tissue | 5.34 (0.52) μmole/g tissue | 2.01 (0.12) % of applied dose | 2.20 (0.19) % of applied dose | 35.52 (3.69) μmole/g tissue | 15.30 (2.20) % of applied dose | –
2 | CC/C(=C(\c1ccccc1)c1ccc(OCCN(C)C)cc1)c1ccccc1 [tamoxifen] | – | – | – | – | – | – | – | – | – | – | – | – | – | – | – | – | approximately 40%
